Laboratory results reported in US20100310450A1, “METHOD OF DIAGNOSIS AND AGENTS USEFUL FOR SAME” (MEDVET SCIENCE PTY. LTD., priority 2006, published 2010).

Tests used:
apoptotic Jurkat cells = test: Inhibition by the TG2 inhibitor MDC of protein crosslinking and 3B9 binding in cisplatin-treated Jurkat cells; format: cell-based, human; details: 20 μg/mL cisplatin
Method: FIG. 18 depicts that La antigen is crosslinked during apoptosis. (A) Jurkat cells incubated in 20 μg/mL cisplatin were removed at specified time points and incubated for 10 min. in 1% Triton X-100 solution before 3B9 binding analysis. Data are presented as density plots of staining with 3B9 vs. 7-AAD. (B) Immunoblots of cell lysates of control and cisplatin-treated Jurkat cells were probed with 3B9 for expression of La (top panels) or actin as a loading control (bottom panels) at specified times. (C) Jurkat cells incubated in the absence or presence of increasing concentrations of cisplatin were labeled with cadaverine-biotin added at 100 μM for 48 h. Cells were stained with strepatavidin-Alexa488 and analyzed by flow cytometry. Data shown are MFI±SEM (n=3). […] Cells were analyzed at specified times (24 □, 48 ? and 72 h ▪) for sulforhodamine 101 staining. […]
Transglutaminase 2 (TG2)-mediated protein-protein crosslinking in apoptotic cells was investigated using a modification of a previously described method. […] Samples were vortexed and incubated for 5 min. before analysis by flow cytometry where fluorescence from Sytox Green and sulforhodamine were detected using FL-1 and FL-3, respectively. The degree of crosslinking in apoptotic cells was calculated as the ratio of the MFI of sulforhodamine staining in apoptotic cells to the MFI in control cells (protein crosslinking ratio). […]

PANC-1 cells [1] = test: MTS proliferation assay with TSA and gemcitabine; format: cell-based, human; details: TSA alone
Method: FIG. 40 depicts that gemcitabine and TSA synergise to reduce proliferation rates among PANC-1 cells in vitro. PANC-1 cells (2×10^4 cells) were seeded in flat bottom 96-well plates overnight using phenol-free RPMI-1640 medium containing 10% FCS (medium). A serial dilution of 2×10^4 cells was used to construct a standard curve for the MTS assay. Triplicate wells were incubated with increasing concentrations of TSA (nM) with or without the addition of increasing concentrations of gemcitabine. Three identical plates were incubated for 24, 48 or 72 h then medium was decanted and fresh medium (100 μL) containing 20 μL MTS/PMS substrate was added to all wells. Assays were performed according to the manufacturer's instructions. The change in the absorbance reading over time was calculated for each condition in units of change per 12 h (upper panel), which was converted to units of cell number change per 12 h (lower panel) using a standard curve of the absorbance reading as a function of […] (r^2=0.99).

PANC-1 cells [2] = test: Cell death (7-AAD) and 3B9-specific binding after gemcitabine and TSA; format: cell-based, human; details: TSA alone; data not shown
Method: FIG. 15 depicts that 3B9 binding to dead PANC-1 cells is augmented after combination treatment with gemcitabine and TSA produced additive cytotoxicity and DNA-damaging effects. PANC-1 cells were incubated with increasing concentrations of gemcitabine in the absence (clear columns) or presence of 100 ng/mL (hatched columns) or 200 ng/mL (filled columns) of TSA. Analysis was done for viability using 7-AAD (A), 3B9-specific binding (B) and DNA damage using γH2AX staining (C). Data are presented as mean±SEM from three independent experiments. Photomicrographs show PANC-1 cells treated with gemcitabine and TSA (+) or not (−), which were stained with γH2AX-specific mAb and 7-AAD (D).
PANC-1 cells (2×10^4 cells) were seeded in flat bottom 96-well plates overnight using phenol-free RPMI-1640 medium containing 10% FCS (medium). Cells were incubated with the specified concentrations of gemcitabine or TSA singly or in combination. Cells were collected (from media and EDTA detached adherent cells) and subjected to indirect immunofluorescence staining with Apomab or its Sal5 isotype control mAb and assessed for viability with 7-AAD staining. […]
(§1) Apoptosis or cell death was induced by adding cytotoxic drugs to culture media at the specified concentrations. […] Control (untreated) cells had ≧90% viability determined by PI or trypan blue staining (data not shown). […]

Jurkat cells = test: Apomab-specific binding to cisplatin-treated Jurkat cells with TSA; format: cell-based, human; details: TSA added to 10 μg/mL cisplatin, 48 h
Method: FIG. 36 depicts that the histone deacetylase inhibitor (HDACi) trichostatin A (TSA) exerts dose-dependent synergy with cisplatin to augment Apomab-specific binding to dead Jurkat cells. Jurkat cells were incubated for 48 h with 10 μg/mL cisplatin together with increasing concentrations of TSA. Cells were subjected to indirect immunofluorescence staining using Apomab or its Sal5 isotype control mAb and viability was assessed using 7-AAD. Apomab-specific binding was calculated as the Net MFI after gating on 7-AAD^+ events. Data are presented as the mean±SEM from two separate experiments. (A) Apomab-specific binding to cisplatin-treated Jurkat cells is plotted as a function of TSA concentration. […]
as §1
Indirect immunofluorescence staining was performed using purified mouse antibodies at 5 μg/mL for 30 min. at room temperature (RT) in PBS followed by Alexa488-conjugated anti-mouse IgG at 2 μg/mL for 30 min. at RT in PBS. […] Cell viability was assessed by the exclusion of PI (0.5 μg/mL) and detected using the FL-2 channel (585 nm filter) or by the exclusion of 7-AAD (2 μg/mL for 15 min. at RT) and detected using the FL-3 channel (>650 nm filter). […]

Raji = test: Binding of La-specific mAb (3B9-FITC) to apoptotic human cancer cell lines, dual-colour flow cytometry; details: 2 μM staurosporine, 20 μg/mL etoposide or 0.1 μg/mL vincristine, 3B9-FITC and PI

CN(C)c1cccc2c(S(=O)(=O)NCCCCCN)cccc12 [MDC, monodansylcadaverine]
effect on protein crosslinking (sulforhodamine crosslinking ratio) (apoptotic Jurkat cells): dose-dependent inhibitory effect

CC(/C=C/C(=O)NO)=C\[C@@H](C)C(=O)c1ccc(N(C)C)cc1 [TSA, trichostatin A]
effect on proliferation of PANC-1 cells (PANC-1 cells [1]): inhibited proliferation | 3B9 binding in comparison with control PANC-1 cells (PANC-1 cells [2]): did not alter 3B9 binding | Apomab-specific binding to dead Jurkat cells (Jurkat cells): dose-dependent increase

CC[C@]1(O)C[C@H]2CN(CCc3c([nH]c4ccccc34)[C@@](C(=O)OC)(c3cc4c(cc3OC)N(C=O)[C@H]3[C@@](O)(C(=O)OC)[C@H](OC(C)=O)[C@]5(CC)C=CCN6CC[C@]43[C@@H]65)C2)C1 [Vincristine, vincristine]
percentages of PI+ and 3B9+ events after subtraction of control (PI+ and Sal5+) events (Raji): 9.8%
